Test results as given in US20240383910A1, “SMALL MOLECULE BTK DEGRADERS AND METHODS OF USE THEREOF” (Baylor College of Medicine, priority 2023, published 2024).

Experiments:
IKZF1 [1] = target: T1, IKZF1 (Homo sapiens, UniProt Q13422+Q96SW2); experiment: Western blotting for IKZF1 in Mino cells; format: cell-based; details: 24 h, Western blot, read-out: IKZF1-WB Endpoint DC50
T1 construct: host or cells: Mino
Method: (§1) Panel a. […] Panel b. […] Panel c. […] Panel d-e. […] Panel g.
After treatment, whole cell lysates for immunoblotting were prepared by pelleting Mino cells at 4° C. and 200×g for 5 minutes. […] Imaging was performed using the ECL Prime chemiluminescent Western blot detection reagents (Kindle Biosciences, Cat. No. R1100) by visualization of the blots with an Imager (Kindle Biosciences, Cat. No. D1001). All Western blots were subsequently processed and quantified with Imager software ImageJ and protein level was normalized to the B-actin loading controls.

IKZF1 [2] = target: T1, IKZF1; experiment: TMT-based quantitative proteomics in Mino cells, IKZF1; format: cell-based; details: 200 nM, 4 h
Method: as §1
(§2) Two million of Mino cells were treated with DMSO or 200 nM of PS-2 for 4 hours in biological triplicates and cells were harvested by centrifugation (200×g, 4° C., 5 min). Lysis buffer (100 mM Triethylammonium bicarbonate (TEAB, Thermo Fisher Scientific, Cat. No. 90114), 2% SDS) was added to the cell pellets and homogenized with a microtip sonicator (Branson) to achieve a cell lysate with a protein concentration of ˜2 mg mL^−1. Protein concentration was determined using BCA assay (Pierce, Cat. No. 23225) and normalized to 1 mg mL^−1. One hundred μg of protein for each sample were reduced and alkylated with 10 mM Tris(2-carboxyethyl) phosphine hydrochloride (TCEP, Sigma, Cat. No. C4706) and 17 mM iodoacetamide (IAA, Sigma, Cat. No. 16125-5G), followed by digestion with trypsin (1:20, enzyme: protein, Thermo Fisher Scientific, Cat. No. 90058) for 16 h shaking at 37° C. […]
(§3) Next, tandem mass tagging (TMT)-based quantitative proteomic profiling was performed to evaluate the degradation specificity of PS-2. […] Quantitative proteomics employing TMT chemical labeling coupled with LC/MS/MS enabled the detection of >2,500 unique proteins without fractionation (FIG. 4f). […]

CSK = target: T2, CSK (Homo sapiens, UniProt P41240); experiment: TMT-based quantitative proteomics in Mino cells, CSK; format: cell-based; details: 200 nM, 4 h
T2 construct: host or cells: Mino
T2 sequence (P41240 whole entry): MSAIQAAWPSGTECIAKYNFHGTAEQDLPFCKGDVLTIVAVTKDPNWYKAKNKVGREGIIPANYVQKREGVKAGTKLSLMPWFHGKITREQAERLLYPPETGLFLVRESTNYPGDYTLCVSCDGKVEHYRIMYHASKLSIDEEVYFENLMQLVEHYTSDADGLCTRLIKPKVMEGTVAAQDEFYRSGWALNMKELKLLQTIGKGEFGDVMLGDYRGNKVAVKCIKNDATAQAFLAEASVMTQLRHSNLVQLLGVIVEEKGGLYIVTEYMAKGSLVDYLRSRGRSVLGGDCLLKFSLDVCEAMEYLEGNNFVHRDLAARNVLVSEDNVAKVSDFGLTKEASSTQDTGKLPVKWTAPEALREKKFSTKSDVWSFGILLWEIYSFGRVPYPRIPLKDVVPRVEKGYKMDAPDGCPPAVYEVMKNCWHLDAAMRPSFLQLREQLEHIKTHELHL
Method: as §1, §2, §3

BTK-Hibit [3] = target: T3, BTK-Hibit (Homo sapiens, UniProt Q06187); experiment: BTK degradation in BTK-Hibit knock-in Ramos cells; format: cell-based; details: 24 hours
T3 construct: endogenous in cells; host or cells: Ramos (BTK-Hibit knock-in)
T3 sequence (Q06187 2-659 limits assumed): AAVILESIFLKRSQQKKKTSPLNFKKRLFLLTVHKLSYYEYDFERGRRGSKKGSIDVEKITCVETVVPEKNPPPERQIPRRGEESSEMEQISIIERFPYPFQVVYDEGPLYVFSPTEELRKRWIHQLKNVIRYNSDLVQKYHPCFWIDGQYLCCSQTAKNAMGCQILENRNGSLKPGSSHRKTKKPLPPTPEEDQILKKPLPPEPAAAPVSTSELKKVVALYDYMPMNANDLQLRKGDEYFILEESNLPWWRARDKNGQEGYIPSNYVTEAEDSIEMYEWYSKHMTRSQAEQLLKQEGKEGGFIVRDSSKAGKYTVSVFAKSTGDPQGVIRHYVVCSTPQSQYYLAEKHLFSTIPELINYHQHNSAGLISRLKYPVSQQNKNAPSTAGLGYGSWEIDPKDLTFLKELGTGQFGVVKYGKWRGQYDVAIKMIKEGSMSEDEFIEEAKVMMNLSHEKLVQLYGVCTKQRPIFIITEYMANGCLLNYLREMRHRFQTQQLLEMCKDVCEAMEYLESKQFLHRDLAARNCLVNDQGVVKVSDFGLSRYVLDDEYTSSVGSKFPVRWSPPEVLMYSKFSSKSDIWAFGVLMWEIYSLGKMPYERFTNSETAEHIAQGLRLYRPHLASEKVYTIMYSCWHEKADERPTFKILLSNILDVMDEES
T3 sequence (Q96SW2 whole entry, further chain): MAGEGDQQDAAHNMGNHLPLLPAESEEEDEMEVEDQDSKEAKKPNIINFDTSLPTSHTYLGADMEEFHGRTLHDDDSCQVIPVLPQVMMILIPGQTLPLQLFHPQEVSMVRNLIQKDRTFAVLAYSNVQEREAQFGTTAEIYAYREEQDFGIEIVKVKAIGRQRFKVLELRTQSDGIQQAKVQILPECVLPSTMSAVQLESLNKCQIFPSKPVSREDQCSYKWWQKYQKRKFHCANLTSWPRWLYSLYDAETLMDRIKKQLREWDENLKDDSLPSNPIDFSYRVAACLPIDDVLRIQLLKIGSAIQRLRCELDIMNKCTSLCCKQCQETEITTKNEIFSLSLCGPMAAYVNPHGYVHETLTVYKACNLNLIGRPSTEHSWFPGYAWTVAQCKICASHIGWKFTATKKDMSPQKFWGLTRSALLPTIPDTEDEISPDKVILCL
T3 sequence (Q16531 whole entry partner): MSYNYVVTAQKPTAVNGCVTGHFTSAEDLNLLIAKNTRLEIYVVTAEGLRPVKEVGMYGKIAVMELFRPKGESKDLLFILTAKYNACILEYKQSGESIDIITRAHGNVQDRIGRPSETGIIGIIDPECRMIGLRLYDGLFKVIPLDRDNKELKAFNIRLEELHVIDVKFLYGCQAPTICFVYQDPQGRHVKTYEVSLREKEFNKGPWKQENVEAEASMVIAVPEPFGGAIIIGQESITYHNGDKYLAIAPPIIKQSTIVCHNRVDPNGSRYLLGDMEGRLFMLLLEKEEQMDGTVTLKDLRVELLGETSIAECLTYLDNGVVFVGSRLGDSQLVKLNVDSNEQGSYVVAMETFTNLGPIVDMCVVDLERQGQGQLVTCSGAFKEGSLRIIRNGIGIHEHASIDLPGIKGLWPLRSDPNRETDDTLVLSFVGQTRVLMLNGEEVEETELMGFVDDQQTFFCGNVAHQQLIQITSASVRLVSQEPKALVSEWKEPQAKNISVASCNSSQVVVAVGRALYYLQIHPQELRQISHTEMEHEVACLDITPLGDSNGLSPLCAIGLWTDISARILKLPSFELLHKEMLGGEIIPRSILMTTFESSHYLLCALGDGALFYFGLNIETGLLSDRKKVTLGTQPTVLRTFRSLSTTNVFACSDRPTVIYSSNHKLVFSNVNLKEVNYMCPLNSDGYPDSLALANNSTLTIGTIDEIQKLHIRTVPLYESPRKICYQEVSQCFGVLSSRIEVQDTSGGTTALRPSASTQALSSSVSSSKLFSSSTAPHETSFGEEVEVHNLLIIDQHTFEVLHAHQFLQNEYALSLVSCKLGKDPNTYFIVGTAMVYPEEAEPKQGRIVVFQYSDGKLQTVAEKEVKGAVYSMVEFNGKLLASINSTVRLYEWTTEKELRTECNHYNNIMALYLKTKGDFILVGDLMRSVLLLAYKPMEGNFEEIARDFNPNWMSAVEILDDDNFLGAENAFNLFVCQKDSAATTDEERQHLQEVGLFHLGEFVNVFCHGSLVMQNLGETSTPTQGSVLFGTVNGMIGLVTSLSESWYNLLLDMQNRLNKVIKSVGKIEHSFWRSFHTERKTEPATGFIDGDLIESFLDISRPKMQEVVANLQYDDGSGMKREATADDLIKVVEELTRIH
Method: (§4) Ramos cells were treated with the indicated compounds at the indicated concentrations for 24 hours. Nurix and DD-03-171 were used as the controls.
(§5) To further illustrate the BTK degradation ability of PS-2, BTK-Hibit knock-in Ramos cells were treated with PS-2 for 24 hours, using Nurix and DD-03171 as controls (FIG. 6).

BTK-Hibit [4] = target: T4, BTK-Hibit (Homo sapiens, UniProt Q06187+Q96SW2); experiment: BTK degradation in BTK-Hibit knock-in Ramos cells; format: cell-based; details: 24 hours
T4 construct: endogenous in cells; host or cells: Ramos (BTK-Hibit knock-in)
T4 sequence (Q06187 2-659 limits assumed): as the sequence (Q06187 2-659 limits assumed) above
T4 sequence (Q96SW2 whole entry): as the sequence (Q96SW2 whole entry, further chain) above
T4 sequence (Q16531 whole entry partner): as the sequence (Q16531 whole entry partner) above
Method: as §4, §5

[5] = Mouse S9 metabolic stability assay; format: in vitro ADME; details: co-incubated with mouse liver S9 enzymes, LC-MS; read-out: t1/2 in mouse liver S9
Method: To verify the metabolic stability of PS-2, PS-2 was co-incubated with mouse liver S9 enzymes and LC-MS was used to test the remaining amount of PS-2 compound. DD-03-171 was used as a control (FIG. 11).

Mino cells = experiment: TMT-based quantitative proteomics in Mino cells, degradation specificity over the proteome; format: cell-based; details: 200 nM, 4 h, >2,500 proteins
Method: as §1, §2, §3

BTK [6] = target: T5, BTK (Homo sapiens, UniProt Q06187); experiment: Western blotting for BTK in Mino cells; format: cell-based; design: host or cells: Mino; details: up to 1000 nM, 24 h, Western blot
T5 sequence (Q06187 whole entry): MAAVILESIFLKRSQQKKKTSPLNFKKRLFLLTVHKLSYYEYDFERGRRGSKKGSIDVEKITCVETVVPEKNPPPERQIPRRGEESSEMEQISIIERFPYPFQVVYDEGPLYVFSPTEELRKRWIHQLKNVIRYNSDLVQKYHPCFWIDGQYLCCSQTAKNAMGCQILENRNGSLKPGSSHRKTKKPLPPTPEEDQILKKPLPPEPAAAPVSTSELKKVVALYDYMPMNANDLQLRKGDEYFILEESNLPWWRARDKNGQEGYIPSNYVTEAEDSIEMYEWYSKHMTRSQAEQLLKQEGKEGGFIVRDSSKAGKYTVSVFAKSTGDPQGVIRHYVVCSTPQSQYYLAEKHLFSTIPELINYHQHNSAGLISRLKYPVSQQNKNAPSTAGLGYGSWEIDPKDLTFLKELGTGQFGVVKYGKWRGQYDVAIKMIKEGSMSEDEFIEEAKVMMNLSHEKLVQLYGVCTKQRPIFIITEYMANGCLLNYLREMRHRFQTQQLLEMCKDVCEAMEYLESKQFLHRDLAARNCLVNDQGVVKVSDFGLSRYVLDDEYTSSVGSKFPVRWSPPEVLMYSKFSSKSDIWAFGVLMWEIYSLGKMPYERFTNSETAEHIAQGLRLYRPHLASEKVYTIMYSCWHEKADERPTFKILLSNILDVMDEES
Method: Mino cells were seeded into the wells of six-well plates at the density of 5×10^5 cells per mL in 2 mL of complete RPMI-1640 culture medium. After overnight adaptation, cells were treated with serially diluted compounds (from 1,000-1.6 nM, 5-fold dilution) for 24 hours. After treatment, whole cell lysates for immunoblotting were prepared by pelleting Mino cells at 4° C. and 200×g for 5 minutes. The resulting cell pellets were washed once with ice-cold PBS and lysed in 1×RIPA lysis buffer (Alfa Aesar, Cat. No. J62524) supplemented with protease and phosphatase inhibitor cocktail (Thermo Fisher, Cat. No. 78430). Lysates were centrifuged at 15,000×g for 10 min at 4° C. and protein concentrations were assessed using BCA assay (Pierce, Cat. No. 23225). Same amounts of protein (30 μg) for each sample were loaded onto sodium dodecyl sulfate-polyacrylamide gel, separated by electrophoresis (Bio-Rad) at 120 V for 1.5 h and transferred to PVDF membrane using a Transblot Turbo system (Bio-Rad). After blocking for 1 h at room temperature in 1% BSA-TBST, the membranes were immunoblotted with the specified primary antibodies at the dilution of 1:1000 in TBST (Cell Signaling Technology: anti-BTK Cat. No. 8547, anti-IKZF1 Cat. No. 14859, anti-IKZF3 Cat. No. 15103, anti-β-actin Cat. No. 4570, Proteintech: anti-GSPT1, Cat. No. 10763-1-AP) overnight at 4° C. and the HRP-conjugated secondary antibodies (Cell Signaling, Cat. No. 7074, 1:1000 in TBST) for 1 h at room temperature. Imaging was performed using the ECL Prime chemiluminescent Western blot detection reagents (Kindle Biosciences, Cat. No. R1100) by visualization of the blots with an Imager (Kindle Biosciences, Cat. No. D1001). All Western blots were subsequently processed and quantified with Imager software ImageJ and protein level was normalized to the B-actin loading controls.

BTK [7] = target: T5, BTK; experiment: TMT-based quantitative proteomics in Mino cells, BTK; format: cell-based; design: host or cells: Mino; details: 200 nM, 4 h
Method: as §1, §2, §3

T1 sequence (Q13422 whole entry): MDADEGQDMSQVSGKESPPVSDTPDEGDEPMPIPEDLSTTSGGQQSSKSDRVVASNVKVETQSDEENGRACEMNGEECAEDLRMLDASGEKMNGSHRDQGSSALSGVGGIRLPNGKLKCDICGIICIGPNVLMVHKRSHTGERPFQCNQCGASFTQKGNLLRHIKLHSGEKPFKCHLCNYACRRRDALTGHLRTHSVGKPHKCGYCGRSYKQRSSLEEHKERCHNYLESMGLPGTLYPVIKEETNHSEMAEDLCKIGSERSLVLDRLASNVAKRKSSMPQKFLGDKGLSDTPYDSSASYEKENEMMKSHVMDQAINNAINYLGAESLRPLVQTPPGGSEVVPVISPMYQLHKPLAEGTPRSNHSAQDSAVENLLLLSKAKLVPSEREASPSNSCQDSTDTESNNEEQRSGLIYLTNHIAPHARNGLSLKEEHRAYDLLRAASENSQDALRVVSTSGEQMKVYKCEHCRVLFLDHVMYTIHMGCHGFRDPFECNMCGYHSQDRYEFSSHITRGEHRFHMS
T1 sequence (Q96SW2 whole entry): as the sequence (Q96SW2 whole entry, further chain) above
T1 sequence (Q16531 whole entry partner): as the sequence (Q16531 whole entry partner) above

O=C1CCC(N2C(=O)c3cccc(NCC(=O)N4CCN(c5ccc(Nc6nccc(Oc7ccccc7)n6)cc5)CC4)c3C2=O)C(=O)N1 (stereo not drawn) [PS-2, 2-(2,6-Dioxopiperidin-3-yl)-4-((2-oxo-2-(4-(4-((4-phenoxypyrimidin-2-yl)amino)phenyl)piperazin-1-yl)ethyl)amino)isoindoline-1,3-dione]
DC50 (IKZF1 [1]): 28 nM | degradation of IKZF1 (IKZF1 [2]): ~50% | CSK protein level change (CSK): downregulated | DC50 (BTK-Hibit [3]): 3.75 nM | Dmax (BTK-Hibit [4]): 84.7% | half-life [5]: ~20 min | other proteins downregulated by at least 25% with statistical significance (Mino cells): No other proteins are downregulated | BTK degradation (result in words) (BTK [6]): potently induces BTK degradation | BTK protein level change (BTK [7]): downregulated
